According to publication PMC6010111, “Synthesis, biological evaluation and molecular modeling studies on novel quinonoid inhibitors of CDC25 phosphatases” (Journal of Enzyme Inhibition and Medicinal Chemistry, 2016):

Legend:
Assay type in all cases: biochemical
[1] = biological target: T1, human CDC25A (recombinant GST-CDC25) (Homo sapiens, UniProt P30304); assay: CDC25A dephosphorylation assay with 3-O-methylfluorescein phosphate (fluorimetric); conditions: for remaining activity at 100 µM: 100 µM compound, DMSO control = 100%, read-out: residual activity of CDC25A; for IC50: mean of triplicates ± SD
T1 construct: made in house; host or cells: Escherichia coli BL21-DE3 pLys S
T1 sequence (P30304 1-524): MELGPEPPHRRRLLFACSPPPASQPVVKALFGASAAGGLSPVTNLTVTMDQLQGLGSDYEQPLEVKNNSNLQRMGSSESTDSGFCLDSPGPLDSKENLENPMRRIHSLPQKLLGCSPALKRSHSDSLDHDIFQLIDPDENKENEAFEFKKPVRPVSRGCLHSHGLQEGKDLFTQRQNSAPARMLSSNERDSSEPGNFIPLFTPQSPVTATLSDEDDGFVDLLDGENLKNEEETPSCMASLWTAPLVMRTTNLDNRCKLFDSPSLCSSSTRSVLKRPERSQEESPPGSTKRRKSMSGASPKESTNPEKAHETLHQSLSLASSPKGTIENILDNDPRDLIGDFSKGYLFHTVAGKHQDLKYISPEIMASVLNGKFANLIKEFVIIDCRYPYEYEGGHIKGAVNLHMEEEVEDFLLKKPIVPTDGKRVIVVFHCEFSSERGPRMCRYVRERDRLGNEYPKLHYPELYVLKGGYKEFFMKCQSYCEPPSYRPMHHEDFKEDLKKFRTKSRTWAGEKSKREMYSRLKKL
Source text: (§1) Human glutathione-S-transferase (GST)-Cdc25 recombinant enzymes were used to evaluate the inhibitory potential of compounds.
(§2) Recombinant human GST-CDC25 proteins were produced as previously described by Brault et al.[25] Briefly, the GST-tagged Cdc25s were expressed in the bacterial expression system Escherichia coli BL21-DE3 pLys S, transformed by a plasmidic vector (pGEX 2T) containing the sequences encoding full length CDC25. Production of recombinant proteins was induced via an IPTG induction system. Then, cells were lysed and centrifuged to recover the supernatant which was purified with a GSH-agarose column system, and recombinant GST-CDC25 proteins were eluted and collected in fractions. Activity, purity and protein concentration of the fractions were evaluated.
(§3) CDC25 enzymatic activity was measured by a dephosphorylation assay with 3-O methyl fluorescein phosphate as described. Briefly, the assay was performed in 96-well plates in buffer [50 mM Tris–HCl, 50 mM NaCl, 1 mM EDTA and 0.1% SAB, pH 8.1], 3-O-methylfluorescein phosphate was used as substrate. After 2 h at 30 °C, 3-O-methylfluorescein fluorescent emission was measured with a CytoFluor system (Perspective Applied Biosystems, Villebon-sur-Yvette, France; excitation filter: 475 nm; emission filter: 510 nm).
(§4) Assays were performed in triplicate, and the experiment was independently performed three times. The results are expressed as percentage of inhibition of CDC25 phosphatase activity in presence of the tested compounds (and compared to DMSO control). All compounds were tested at a 100 µM concentration. Naphtoquinone (20 µM) was used as positive reference inhibitor.
(§5) IC50 values for CDC25 inhibition were evaluated by in vitro fluorimetric assays and were determined with sigmoid curves plotted by using a non-linear approximation model based on the least square method (GraphPad Prism software, La Jolla, CA).

[2] = biological target: T2, human CDC25C (recombinant GST-CDC25) (Homo sapiens, UniProt P30307); assay: CDC25C dephosphorylation assay with 3-O-methylfluorescein phosphate (fluorimetric); conditions: for remaining activity at 100 µM: 100 µM compound, DMSO control = 100%, read-out: residual activity of CDC25C; for IC50: mean of triplicates ± SD
T2 construct: made in house; host or cells: Escherichia coli BL21-DE3 pLys S
T2 sequence (P30307 1-473): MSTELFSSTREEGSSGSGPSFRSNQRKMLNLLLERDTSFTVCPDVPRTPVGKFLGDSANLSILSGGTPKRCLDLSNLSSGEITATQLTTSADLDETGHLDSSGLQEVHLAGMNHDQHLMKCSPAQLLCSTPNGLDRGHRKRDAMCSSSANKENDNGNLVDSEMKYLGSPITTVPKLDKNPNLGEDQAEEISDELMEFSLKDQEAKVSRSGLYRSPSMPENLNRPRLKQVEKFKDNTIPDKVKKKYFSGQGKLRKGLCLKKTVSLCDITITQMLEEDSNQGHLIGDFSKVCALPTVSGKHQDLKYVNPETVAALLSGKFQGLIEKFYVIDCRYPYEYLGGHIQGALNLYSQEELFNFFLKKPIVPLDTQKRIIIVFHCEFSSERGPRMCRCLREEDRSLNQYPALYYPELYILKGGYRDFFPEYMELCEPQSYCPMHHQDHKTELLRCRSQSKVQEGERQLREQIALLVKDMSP
Source text: as §1, §2, §3, §4, §5

[3] = biological target: T3, human CDC25B (recombinant GST-CDC25) (Homo sapiens, UniProt P30305); assay: CDC25B dephosphorylation assay with 3-O-methylfluorescein phosphate (fluorimetric); conditions: for remaining activity at 100 µM: 100 µM compound, DMSO control = 100%, read-out: residual activity of CDC25B; for IC50 / IC50 CDC25B: mean of triplicates ± SD
T3 construct: made in house; host or cells: Escherichia coli BL21-DE3 pLys S
T3 sequence (P30305 1-580): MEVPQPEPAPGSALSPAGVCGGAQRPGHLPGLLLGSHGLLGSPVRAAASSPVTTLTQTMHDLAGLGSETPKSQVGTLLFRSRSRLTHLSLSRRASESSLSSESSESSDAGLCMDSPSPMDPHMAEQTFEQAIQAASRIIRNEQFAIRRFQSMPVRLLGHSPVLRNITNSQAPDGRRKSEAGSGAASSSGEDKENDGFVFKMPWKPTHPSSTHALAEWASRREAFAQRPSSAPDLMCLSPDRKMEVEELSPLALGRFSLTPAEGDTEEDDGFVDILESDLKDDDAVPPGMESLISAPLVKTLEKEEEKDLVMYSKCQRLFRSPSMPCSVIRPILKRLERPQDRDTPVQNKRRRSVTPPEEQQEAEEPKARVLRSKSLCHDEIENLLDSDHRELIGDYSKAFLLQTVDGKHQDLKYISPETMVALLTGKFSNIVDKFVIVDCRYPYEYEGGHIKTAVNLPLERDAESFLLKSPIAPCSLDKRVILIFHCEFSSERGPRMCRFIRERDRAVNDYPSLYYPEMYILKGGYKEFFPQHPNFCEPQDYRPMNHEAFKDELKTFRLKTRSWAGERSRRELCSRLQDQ
Source text: as §1, §2, §3, §4, §5

| Compound | remaining activity at 100 µM [1] [%] | remaining activity at 100 µM [2] [%] | remaining activity at 100 µM [3] [%] | IC50 [1] [µM] | IC50 [2] [µM] | IC50 [3] [µM] | IC50 CDC25B [3] |
| --- | --- | --- | --- | --- | --- | --- | --- |
| COC1=CC(=O)[C@]2(C)CC=C3CO[C@@H](c4ccoc4)CC3[C@]2([S@@+]([O-])c2ccc(C)cc2)C1=O (stereo partly drawn) [Compound 4] |  |  |  | 3.73 ± 1.53 | 9.43 ± 1.25 | 18.2 ± 1.68 | double digit micromolar |
| COCC1=CC(=O)C(C)=C([S@@+]([O-])c2ccc(C)cc2)C1=O [Compound 2] | > 10 | > 10 | > 10 |  |  |  |  |
| COC1=CC(=O)C=C([S@@+]([O-])c2ccc(C)cc2)C1=O [Compound 1] |  |  |  | 2.64 ± 0.62 |  |  |  |

Continued, in another order:

| remaining activity at 100 µM [1] [%] | remaining activity at 100 µM [2] [%] | remaining activity at 100 µM [3] [%] | IC50 [1] [µM] | IC50 [2] [µM] | IC50 [3] [µM] | Compound | IC50 CDC25B [3] |
| --- | --- | --- | --- | --- | --- | --- | --- |
| > 10 | > 10 | > 10 |  |  |  | COC1=CC(=O)[C@]2(C)CC=C3CO[C@@H](c4ccoc4)CC3C2[C@H]1O (stereo partly drawn) [Compound 7] |  |
| > 10 | > 10 | > 10 |  |  |  | COC1=CC(=O)[C@]2(C)CC=C3CO[C@@H](c4ccccc4)CC3C2C1=O (stereo partly drawn) [Compound 6] |  |
|  |  |  | 2.53 ± 0.23 | 5.76 ± 0.42 | 7.46 ± 2.17 | COC1=CC(=O)[C@]2(C)CC=C3CO[C@@H](c4ccccc4)CC3[C@]2([S@@+]([O-])c2ccc(C)cc2)C1=O (stereo partly drawn) [Compound 5] |  |
|  |  |  | 3.19 ± 1.02 | 5.41 ± 0.52 | 11.1 ± 1.01 | CCOC1=CC(=O)C(C)=C([S@@+]([O-])c2ccc(C)cc2)C1=O [Compound 3] | double digit micromolar |
